One test deals with P388 tumor cells. Particulars: single i.p. treatment of 0.01 mg/kg; cited from earlier work.
For the next test, the system named is OSBP protein levels. The test can be described thus: OSBP protein levels by western blot. The class given is cell-based. As to the method: One unanticipated discovery from the IF studies was that, after several hours, CRAM treatment of cells caused a significant reduction in the intensity of the OSBP fluorescent signal. This could mean that CRAMs are inducing a reduction in OSBP protein levels: an effect not observed with 25-OHC. The amount of OSBP protein in cells exposed to CRAMs was measured by western blot. […] Cephalostatin 1 induced a 70% reduction in OSBP at 12 h, and OSW-1 caused a 69% reduction in OSBP at 24 h. […] This supports a situation where reduction of OSBP levels by 1 and 2 is a result of a proteasome-dependent degradation process. One possible scenario is that 1 and 2 are also causing protein level reductions of ORPs and this is the source of cytotoxicity of CRAMs.
For orientation: Immunoblotting shows a protein as a band on a membrane.

Test [1] concerns HCT-116 p21−/− cells with siRNA knockdown of p53. The test can be described thus: GI50 after siRNA knockdown of p53. The class given is cell-based. Particulars: data not shown. An excerpt:
[5] […] This shared p21 differential cytotoxicity supports the idea of a common CRAM mechanism of action and likely similar target. […] However, caution has to be exercised in concluding that compounds found to be selective for p21 deficient HCT-116 cells are truly synthetic lethal with p21. It was recently reported that compounds shown to be hypersensitive to HCT-116 p21^−/− cells was actually due to an overexpression of p53 in that cell line. Subsequent siRNA knockdown of p53 eliminated the apparent p21 synthetic lethality.

The next test has as its system U87-MG. The conditions noted are these: cited from earlier work.
A further test concerns normal lymphocytes. Particulars: cited from earlier work.
Another test addresses T1, ORP4-myc-his (Homo sapiens, UniProt Q969R2).
T1 construct: made in house; host or cells: HEK-293T (crude S100 lysate, not purified)
The test can be described thus: competitive binding assay, displacement of [3H]-25-OHC from ORP4. Particulars: 20 nM [3H]-25-OHC, ORP4-myc-his S100 lysate (HEK-293T), 16 h at 4° C.; read-out: Ki, displacing [3H]-25-OHC from ORP4. As to the method: (§1) It has been determined that CRAMs inhibit the binding of radiolabelled 25-OHC ([^3H]-25-OHC) to recombinant OSBP-myc-his and ORP4-myc-his overexpressed in HEK-293T lysate (FIG. 18). It is known that 25-hydroxycholesterol is a high affinity ligand for OSBP and ORP4. Increasing concentrations of CRAMs or OSW-1 analogs were incubated with 20 nM [^3H]-25-OHC in OSBP-myc-his or ORP4-myc-his S100 lysate for 16 h at 4° C. after which unbound sterol was removed using charcoal-dextran and the bound sterol quantified by LCS (liquid scintillation counting).
(§2) These experiments provide evidence that CRAMs are ligands of OSBP and ORP4, and in the case of 1 and 2, they are high affinity ligands.
(§3) To measure the Kis of CRAMs to OSBP and ORP4 reported above, a previously reported dextran-coated charcoal assay was adapted into a 96-well format. […] To solve these limitations a binding SPA (scintillation proximity assay) for OSBP/ORPs (FIG. 26) will be developed.
(In a radioligand displacement assay an active substance lowers the binding of a labelled ligand.)

In the next test the test system is NCI-60. Particulars: read-out: GI50, average against the NCI-60; cited from earlier work.
A further test addresses T2, recombinant OSBP-myc-his (Homo sapiens, UniProt P22059).
T2 construct: made in house; host or cells: HEK-293T (crude S100 lysate, not purified)
T2 sequence (P22059 1-807): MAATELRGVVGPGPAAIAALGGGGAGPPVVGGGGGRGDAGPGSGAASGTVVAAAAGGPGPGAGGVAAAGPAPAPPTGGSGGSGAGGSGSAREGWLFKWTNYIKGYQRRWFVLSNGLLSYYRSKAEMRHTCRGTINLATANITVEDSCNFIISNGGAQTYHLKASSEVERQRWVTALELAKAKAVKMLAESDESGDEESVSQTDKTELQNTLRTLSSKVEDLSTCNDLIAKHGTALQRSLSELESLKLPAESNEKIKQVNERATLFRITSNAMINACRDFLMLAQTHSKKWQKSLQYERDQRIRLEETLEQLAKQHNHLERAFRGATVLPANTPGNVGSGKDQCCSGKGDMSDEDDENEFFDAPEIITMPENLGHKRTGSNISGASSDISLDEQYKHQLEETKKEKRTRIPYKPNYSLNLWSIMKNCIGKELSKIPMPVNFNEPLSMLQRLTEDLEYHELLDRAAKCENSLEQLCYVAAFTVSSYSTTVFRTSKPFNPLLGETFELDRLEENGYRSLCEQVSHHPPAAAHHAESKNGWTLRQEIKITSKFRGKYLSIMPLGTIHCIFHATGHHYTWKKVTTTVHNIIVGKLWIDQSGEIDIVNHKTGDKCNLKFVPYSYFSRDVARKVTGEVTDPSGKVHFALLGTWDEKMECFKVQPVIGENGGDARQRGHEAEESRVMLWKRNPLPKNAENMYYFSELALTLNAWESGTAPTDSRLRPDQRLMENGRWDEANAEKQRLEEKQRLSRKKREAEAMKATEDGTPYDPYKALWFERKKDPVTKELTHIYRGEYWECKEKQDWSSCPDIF
Kind of test: competitive binding assay, displacement of [3H]-25-OHC from OSBP (charcoal-dextran, liquid scintillation counting). Particulars: 20 nM [3H]-25-OHC, OSBP-myc-his S100 lysate (HEK-293T), 16 h at 4° C.; read-out: Ki, displacing OSBP-bound [3H]-25-OHC. The method, then:
as §1, §2, §3

In another test the test system is HL-60. The conditions noted are these: cited from earlier work.
The test system of a further test is normal astrocytes. The conditions noted are these: cited from earlier work.
In test [2] the test system is HCT-116 p21−/− shNT and shOSBP cells. Kind of test: CRAM cytotoxicity after shRNA knockdown of OSBP, HCT-116 p21−/−. The class given is cell-based. The conditions noted are these: OSBP knocked down by 89% (FIG. 8).

T1 sequence (Q969R2 whole entry): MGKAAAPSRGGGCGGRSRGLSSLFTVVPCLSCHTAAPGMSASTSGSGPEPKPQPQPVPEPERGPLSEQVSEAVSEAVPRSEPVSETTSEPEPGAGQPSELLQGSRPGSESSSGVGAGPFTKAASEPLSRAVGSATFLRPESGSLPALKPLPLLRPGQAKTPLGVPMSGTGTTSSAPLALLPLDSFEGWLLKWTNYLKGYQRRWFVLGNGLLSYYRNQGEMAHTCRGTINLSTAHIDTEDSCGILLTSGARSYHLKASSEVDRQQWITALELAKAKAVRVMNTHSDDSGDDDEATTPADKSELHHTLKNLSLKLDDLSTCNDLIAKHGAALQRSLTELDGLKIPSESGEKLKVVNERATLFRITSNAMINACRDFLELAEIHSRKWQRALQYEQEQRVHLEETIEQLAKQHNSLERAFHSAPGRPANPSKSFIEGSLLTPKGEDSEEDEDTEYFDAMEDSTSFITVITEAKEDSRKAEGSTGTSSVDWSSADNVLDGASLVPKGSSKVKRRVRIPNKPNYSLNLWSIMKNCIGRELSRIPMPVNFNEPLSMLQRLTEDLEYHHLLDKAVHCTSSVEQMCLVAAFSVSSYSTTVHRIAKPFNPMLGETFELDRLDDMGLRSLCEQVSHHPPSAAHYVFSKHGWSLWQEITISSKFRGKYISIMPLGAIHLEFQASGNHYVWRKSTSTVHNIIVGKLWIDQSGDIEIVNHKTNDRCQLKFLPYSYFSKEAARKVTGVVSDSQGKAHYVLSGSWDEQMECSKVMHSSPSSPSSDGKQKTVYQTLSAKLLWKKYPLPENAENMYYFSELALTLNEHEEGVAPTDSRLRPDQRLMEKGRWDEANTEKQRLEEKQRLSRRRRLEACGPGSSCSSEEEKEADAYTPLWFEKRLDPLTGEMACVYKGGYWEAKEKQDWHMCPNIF

Take `COc1ccc(C(=O)O[C@H]2[C@H](O[C@@H]3[C@@H](OC(C)=O)[C@H](O[C@H]4C[C@H]5[C@@H]6CC=C7C[C@@H](O)CC[C@]7(C)[C@H]6CC[C@]5(C)[C@@]4(O)[C@H](C)C(=O)CCC(C)C)OC[C@@H]3O)OC[C@@H](O)[C@@H]2O)cc1` [OSW-1]: the increased life span in the test on P388 tumor cells was 59%. Further, the “effect on OSBP protein levels” value with OSBP protein levels is reported as “time-dependent reduction in OSBP protein levels”. Moreover, the “reduction in OSBP” value in the test on OSBP protein levels (at 24 h) is 69%. For the same compound, in test [1], the “GI50 after siRNA knockdown of p53” value is listed as “does not alter the GI50”. Further, the “selectivity, malignant brain tumor cells versus normal astrocytes” value in the test with U87-MG (U87-MG versus normal astrocytes) is recorded as 150 fold. For the same compound, the concentration for 50% growth inhibition (GI50) in the test on U87-MG is 0.047 nM; in the test with normal lymphocytes, 1.73 nM; with NCI-60, 0.78 nM; in the test on HL-60 (read-out: GI50, HL-60 leukemia cells), 0.04 nM; in the test with normal astrocytes, 7.13 nM. In addition, the Ki at ORP4-myc-his came out at 32 nM; on recombinant OSBP-myc-his, 21 nM. Also, the “more active in leukemia cells versus normal lymphocytes” value in the test with HL-60 (HL-60 versus normal lymphocytes) is reported as 40 times. Also, the “more sensitive after OSBP knockdown” value in test [2] was determined as 5.7 ×.

Usually GI50 stands for the concentration that inhibits growth by half. Broadly, the Ki is a measure of affinity in units of concentration, obtained from inhibition or displacement.

Values taken from patent US20110319352A1, “Compounds That Bind Oxysterol Binding Proteins, and Methods of Use Thereof” (President and Fellows of Harvard College, priority 2008, published 2011).
